Results taken from patent publication US20040220268A1, “Compound that directly stimulates phospholipase C activity” (priority 2003, published 2004).

Legend:
human neutrophils = assay: [Ca2+]i measurement with fura-2 in neutrophils; format: cell-based
Description: Fura-2-loaded neutrophils were stimulated with m-3M3FBS or o-3M3FBS at 25 μM in extracellular calcium containing 2 mM or extracellular free calcium conditions. The results shown are representative of three independent experiments (A). Prepared neutrophils were loaded with fura-2 and then stimulated with 25 μM of m-3M3FBS in the absence or in the presence of 4 μM of U-73122 or U-73343 (B). Changes in 340 nm/380 nm excitation ratio were monitored, and converted to [Ca^2+]i levels. Data are presented as means ±S. E. M. of three independent experiments.
(§1) Freshly prepared human neutrophils were incubated in serum free RPMI 1640 medium with 3 μM of fura-2/AM at 37° C. for 30 min with continuous stirring. After washing with serum free RPMI 1640 medium, the cells were suspended in serum free RPMI containing 250 μM of sulfinpyrazone to prevent dye leakage. About 2×10^6 cells were suspended in Ca^2+ free Locke's solution (158.4 mM NaCl, 5.6 mM KCl, 1.2 mM MgCl2, 5 mM HEPES pH 7.3, 10 mM glucose, and 0.2 mM EGTA) for each measurement. Changes in the fluorescence ratio were measured at an emission wavelength of 500 nm for dual excitation wavelengths at 340 nm and 380 nm. The calibration of the fluorescence ratio versus [Ca^2+]i was performed as described by Grynkiewicz (Grynkiewicz et al., 1985).

PLC = assay: In vitro PLC activity in the presence or absence of Ca2+; format: biochemical; conditions: data not shown
Description: Moreover, the primary structures of the several different isoforms of PLC are known (Rhee, 2001; Noh et al., 1995). PLC β and PLC δ have an NH2-terminal PH domain, an EF-hand, X and Y domains, known to form the catalytic core, and a COOH-terminal C2 domain. In addition, PLC β has a long C-terminal tail beyond the C2 domain (Rhee, 2001; Noh et al., 1995; Rhee and Bae, 1997). PLC γ has additional three SH domains between the X and Y domains, but no long COOH-terminal tail (Rhee, 2001; Noh et al., 1995; Rhee and Bae, 1997). […] For the proper activation of PLC enzyme, calcium has been regarded as an essential requirement (Rhee and Bae, 1997). Calcium is required not only for the functioning of C2 domain that mediates the Ca^2+-dependent binding to lipid vesicles but also for the catalytic activity of the enzyme (Rhee and Bae, 1997). […] An investigation of the effect of m-3M3FBS on the lipase activity of an X and Y domain mixture will be required to confirm the possible action of m-3M3FBS on the two catalytic cores. Since m-3M3FBS is the first compound that directly stimulates PLC activity, the elucidation of the action mechanism of the compound will give useful information on the basic molecular mechanisms of the activation of PLC enzymes.

PC12 cells = assay: [Ca2+]i measurement with fura-2; format: cell-based, rat; conditions: 25 μM
Description: Neutrophils and HL60, and differentiated HL60, U937, NIH3T3, and PC12 cells were loaded with fura-2 and then stimulated with 25 μM of m-3M3FBS. Changes in the 340 nm/380 nm excitation ratio were monitored, and converted to [Ca^2+]i levels. Data are presented as means ±S. E. M. of three independent experiments.
U937 (human histiocytic lymphoma cells), HL60 (human promyelocytic leukemia cells), NIH3T3 (NIH Swiss mouse embryo fibroblasts), and PC12 (rat adrenal pheochromocytoma cells) were obtained from the American Type Culture Collection (Rockville, Md.) and HeLa (human adenocarcinoma cells) Tet-off cells were purchased from Clontech (Palo Alto, Calif., U.S.A.) and maintained as recommended. The cells were maintained at about 1×10^6 cells/ml under standard incubator conditions (humidified atmosphere, 95% air, 5% CO2, 37° C.). […]
Freshly prepared human neutrophils were incubated in serum free RPMI 1640 medium with 3 μM of fura-2/AM at 37° C. for 30 min with continuous stirring. […] Changes in the fluorescence ratio were measured at an emission wavelength of 500 nm for dual excitation wavelengths at 340 nm and 380 nm. The calibration of the fluorescence ratio versus [Ca^2+]i was performed as described by Grynkiewicz (Grynkiewicz et al., 1985).

[1] = system: PTX-sensitive Gi-proteins; assay: PTX sensitivity of [Ca2+]i increase in neutrophils; format: cell-based, human; conditions: PTX 1 μg/ml for 90 min; m-3M3FBS 25 μM, fMLF 1 μM
Description: (§2) Isolated neutrophils were preincubated with PTX (1 μg/ml) or vehicle for 90 min at 37° C. and stimulated with m-3M3FBS, FMLF, or ATP at concentrations of 25, 1, and 500 μM, respectively. Changes in the excitation ratios at 340 nm/380 nm were monitored. Data are presented as means ±S. E. M. of two independent experiments (A). cAMP levels were determined by a radio receptor assay. Prepared cells were treated with m-3M3FBS (25 μM) or histamine (100 μM) and then lysed with Tris-EDTA. After removing the supernatant, [ 3H] cAMP and protein were added, and the amount of [^3H] cAMP-protein complex was determined. The amount of unlabeled cAMP (in the sample) was then calculated by measuring the protein-bound radioactivity. Data are presented as means ±S. E. M. of two independent experiments (B). RGS2-GFP inducible HeLa cells were cultured for 48 h in the absence or in the presence of tetracycline, and the induction of RGS2-GFP was confirmed by Western blot analysis using anti-GFP antibody (C). RGS2-GFP inducible HeLa cells were cultured for 48 h in the absence or in the presence of tetracycline and loaded with fura-2. Cells were treated with histamine (100 μM) or m-3M3FBS (25 μM), and changes in the 340 nm/380 nm ratios were monitored and converted to [Ca^2+]i values. The results shown are representative of three independent experiments (C).
as §1

Gs-proteins = assay: Cyclic AMP generation (radio receptor assay); format: cell-based; conditions: human neutrophils; m-3M3FBS 25 μM, histamine 100 μM
Description: as §2, with “RGS2-GFP inducible HeLa cells were cultured for 48 h in the absence or in the presence of tetracycline, and the induction of RGS2-GFP was confirmed by Western blot analysis using anti-GFP antibody (C).” left out

[2] = 25 μM, extracellular Ca2+ at physiologic levels (2 mM)

**Q.** With `Cc1cc(C)c(S(=O)(=O)Nc2ccccc2C(F)(F)F)c(C)c1` [o-3M3FBS, 2,4,6-Trimethyl-N-(ortho 3-trifluoromethyl-phenyl)-benzenesulfonamide, reference compound] as the compound, how does the “[Ca2+]i increase” value (human neutrophils; [2]) read?
**A.** failed to elicit this response

**Q.** Which results are given for `Cc1cc(C)c(S(=O)(=O)Nc2cccc(C(F)(F)F)c2)c(C)c1` [m-3M3FBS, 2,4,6-Trimethyl-N-(meta 3-trifluoromethyl-phenyl)-benzenesulfonamide]?
**A.** in vitro PLC activity (PLC): stimulated; calcium increase (PC12 cells): induced calcium increase; effect of PTX preincubation on the induced calcium increase [1]: insensitive to PTX; intracellular cAMP level (Gs-proteins): didn't change the cAMP level; [Ca2+]i increase (human neutrophils; [2]): caused a [Ca^2+]i increase; [Ca2+]i increase (human neutrophils; 25 μM, extracellular calcium-depleted condition): evoked a [Ca^2+]i increase; concentration of saturated maximal activity of [Ca2+]i release (human neutrophils; concentration dependent, data not shown): 50 µM; calcium increase (human neutrophils; human neutrophils, 25 μM): induced calcium increase
